These results are taken from patent US8653054B2, “2-(N-substituted piperazinyl) steroid derivatives” (Universite Laval, priority 2008, dated 2014).

Series [1] deals with MCF-7 breast cancer cells. In words: Cell proliferation assay (MTS) on MCF-7 breast cancer cells. Particulars: Table 3, 3 days incubation. It counts as cell-based, human. How it is done:
MCF-7 breast cancer cells were maintained in Dulbecco's Modified Eagle's Medium (DMEM) containing a nutriment mixture F-12 ham (DME-F12) (Sigma, Saint Louis, USA) supplemented with 5% (v/v) fetal bovine serum (FBS), L-glutamine ([…]), penicillin (100 IU/ml), streptomycin sulphate (50 μg/ml) and estradiol (1 nM). For the assay, DME-F12 was supplemented with 5% (v/v) charcoal-strippes FBS, insulin (50 ng/ml) and the same concentrations of antibiotics as above.

The test system of series [2] is MDA-MB-231 (ER−) breast cancer cells. In words: Cell proliferation assay (MTS) on MDA-MB-231 (ER−) breast cancer cells. It counts as cell-based. As to conditions: Table 3, 3 days incubation.
Series [3] deals with Shionogi mammary carcinoma cells (AR+). The experiment in a line: Cell proliferation assay (MTS) on Shionogi mammary carcinoma cells. Format: cell-based. As to conditions: Table 3, 3 days incubation. How it is done:
Shionogi mammary carcinoma cells bearing androgen-sensitive (AR+) were routinely grown in Eagle's Minimal Essential Medium (MEM) (Sigma, Saint Louis, USA) supplemented with 5% (v/v) fetal bovine serum (FBS), penicillin (100 IU/ml), streptomycin sulphate (50 μg/ml), 1% (v/v) non-essential amino acids and dihydrotestosterone DHT (10^−8 M). For the assay, MEM devoid of the pH indicator phenol red was supplemented with 2% (v/v) charcoal-strippes FBS and the same concentrations of antibiotics and non-essential amino acids as above.

For series [4], the system named is LNCaP prostate cancer cells. The experiment in a line: Cell proliferation assay (MTS) on LNCaP prostate cancer cells. Particulars: Table 3, 3 days incubation. It counts as cell-based.
Method: (§1) The cell proliferation assay was performed using 3-(4,5-dimethylthiazol-2-yl)-5-(3-carboxymethoxyphenyl)2-(4-sulfophenyl)-2H-tetrazolium (MTS) (Cell Titer 96 Aqueous, Promega, USA). MTS is converted into water-soluble colored formazan by dehydrogenase enzymes present in metabolically active cells, which allows the measurement of the number of viable cells.
(§2) The cells were incubated at 37° C. and 5% CO2. The steroid derivatives of the present disclosure were dissolved in ethanol to prepare the 1×10^−2 M stock solutions. The stock solutions and doxorubicin (DOX) (Novapharm, Toronto, Canada) were diluted at multiple concentrations with culture media, added to each well, as indicated, and incubated for 3 days. Following each treatment, 20 μl MTS was added to each well and the mix was incubated for 4 h.
The test system of series [5] is PC-3 (AR−) prostate cancer cells. The experiment in a line: Cell proliferation assay (MTS) on PC-3 (AR−) prostate cancer cells. It counts as cell-based. Particulars: Table 3, 3 days incubation.
Method: (§3) All of the following cell lines were maintained under a CO2 humidified atmosphere at 37° C. The culture media were changed every 3-4 days and the cells were split once a week.
(§4) For the assay, the culture medium was the same.
as §1, §2
In series [6] the test system is OVCAR-3 ovarian cancer cells. In words: Cell proliferation assay (MTS) on OVCAR-3 ovarian cancer cells. Format: cell-based. As to conditions: Table 3, 3 days incubation, MTS. From the text: For the assay, the culture medium was the same, but without estradiol.
Series [7] deals with HL-60 acute promyelocytic leukemia cells. The experiment in a line: Cell proliferation assay (MTS) on HL-60 leukemia cells.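 Also: cells exposed to serially diluted compound for 3 days at 37 °C, then viable cell number read via MTS conversion to coloured formazan by metabolically active cells.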 It counts as cell-based, human.
Method: as §3, §4, §1, §2
In the next series the test system is K-562 leukemia cells. In words: Cell proliferation assay (MTS) on K-562 leukemia cells. It counts as cell-based. Particulars: Table 3, 3 days incubation.
Series [8] has as its system WI-38 diploid fibroblasts. In words: Cell proliferation assay (MTS) on WI-38 normal fibroblasts. As to conditions: Table 3, normal cells, 3 days incubation. Format: cell-based, human.
Method: WI-38 diploid fibroblasts derived from embryonic human lung were cultured in MEM (devoid of the pH indicator phenol red) supplemented with 10% (v/v) FBS, L-glutamine (2 nM), penicillin (100 IU/ml), streptomycin sulphate (50 μg/ml), sodium pyruvate (1 mM) and non-essential amino acids (0.1 mM).
as §1, §2
Another series is described as follows: in vivo. Particulars: male, Sprague-Dawley, rat, sc, 2.3 mg/kg.
Series [9] has as its system normal lymphocytes from peripheral blood. In words: Cell proliferation assay (MTS) on normal lymphocytes. As to conditions: for IC50: read-out: IC50 Lymph Norm.
Method: as §3, §4, §1, §2
Series [10] concerns human MCF-7 breast cancer xenografts. The experiment in a line: Growth of human MCF-7 breast cancer xenografts in nude mice. Format: in vivo. As to conditions: OVX nude mice, 60 mg/kg s.c. 3 times a week, E2-stimulated; FIG. 1. How it is done: MCF-7 breast cancer cells were obtained from the ATCC (Rockville, Md.) and were propagated in Dubelcco's Modified Eagle's Medium nutrient mixture F-12 ham (DME-F12) medium supplemented with 5% FBS, glutamine (2 mM), penicillin (100 IU/mL), streptomycin (100 μg/mL) and estradiol (1 nM). These cells were used to induce tumors in homozygous female nu/nu Brathymic mice (28-42 days old) that were obtained from Charles River (Saint-Constant, Canada). Bilateral ovariectomy was performed under isoflurane-induced anesthesia. At the time of ovariectomy, an implant of estradiol (E2) was inserted s.c. to stimulate initial tumor growth. E2 implants were prepared in 1 cm long Silastic tubing (inside diameter 0.062 inch, outside diameter 0.095 inch) containing 5 mm of 1:8 (w/w) mixture of E2 and cholesterol. One week after ovariectomy, 4.1×10^6 MCF-7 cells were inoculated s.c. in 0.1 mL of medium growth+30% Matrigel on both flanks of each ovariectomized (OVX) mouse through a 2.5 cm long 22-gauge needle. After approximately 5 weeks, the mice were randomly assigned to 2 groups according to tumor size. […] The size of tumors was measured by two perpendicular diameters and tumor area (mm^2) was calculated using the formula L/2×W/2×π. The area measured on the first day of treatment was taken as 100% (FIG. 1). […]

Series [11] is described as follows: Plasmatic concentration (AUC) of aminosteroids after a single subcutaneous injection in rat. Particulars: 2.3 mg/kg.
Method: (§5) Animals: Six to seven week-old male Sprague-Dawley rats (Crl:CD®(SD)Br VAF/Plus™) weighing approximately 220 g were obtained from Charles-River, Inc (St-Constant, Qc., Canada). The animals were acclimatized to environmental conditions (temperature: 22±3° C.; humidity: 50±20%; 12-h light/12-h dark cycles, lights on at 07:15 h) for at least 5 days before starting the experiment. The animals were housed three per cage and were allowed free access to water and a certified commercial rodent food (Rodent Diet #T.2018.15, Harlan Teklad, Madison, Wis., U.S.A.) and were randomized according to their body weight.
(§6) Assay: A pharmacokinetic study was carried out following one subcutaneous (s.c.) injection of the aminosteroids at one concentration (2.3 mg/kg of body weight in 0.5 mL of vehicle fluid). The compound was first dissolved in Ethanol (EtOH) followed by the addition of propylene glycol such that a final concentration of EtOH of 8% was obtained. During this experiment, the rats were housed individually and were fasted for 8h before injection of the aminosteroid. Blood samples for determination of aminosteroid plasma concentration were collected at the jugular vein (0.4 mL by animal) at target intervals of 3, 7, 12 and 24 h (or 3 and 12 h) post-dose from six rats per time point (Tables 5, 6 and 7). After the collect at 7 h, a replacement fluid (0.9% sodium chloride injection USP) was injected in the rat. Blood samples were collected in Microvette potassium-EDTA (ethylenediamine tetra-acetic acid)-coated tubes (Sarstedt, Aktiengesellchaft & Co, Germany) and centrifuged at 3200 rpm for 10 minutes at 4° C. The plasma was collected and stored at −80° C. until analyzed by liquid chromatography/mass spectrometry/mass spectrometry (LC/MS/MS) analysis.
(§7) Aminosteroid measurement: The concentration of the aminosteroid was determined by LC/MS/MS analysis using a procedure developed at the CHUQ (CHUL)—Research Center (Québec, Qc, Canada). Briefly, for extraction from serum, 100 νL, of the serum sample was transferred to individual tubes and 600 μL of ammonium acetate (1 mM) was added. A methanolic solution (50 μL) containing a steroidal internal standard was then added to each tube. Samples were transferred on Strata-X SPE columns (Phenomenex, Torrance, Calif., USA), which have been conditioned with 2 mL of MeOH and 2 mL of water. Each column was washed with 2 mL of MeOH:water (10:90, v/v). The aminosteroid was then eluted with 5 mL of MeOH containing 5 mM ammonium acetate. The MeOH was evaporated at 45° C. under inert atmosphere and the dried residue dissolved in 100 μL of MeOH:water (85:15, v/v). […] The inhibitor was detected using an API 3000 mass spectrometer, equipped with TurbolonSpray (Applied Biosystems, Canada). ESI in positive ion mode was used.

Like-named read-outs stand apart in the source and are kept apart here.

Method for K-562 leukemia cells: as §3, §4, §1, §2
Method for in vivo: as §5, §6, §7

In general, IC50 refers to the midpoint of a concentration-inhibition curve. By AUC(0-t) is commonly meant exposure summed from dosing to a finite time, without extrapolation to infinity. Low readings indicate less exposure, high ones more exposure. Regarding `CC(=O)c1cccc(C(=O)N[C@@H](Cc2ccccc2)C(=O)N2CCN([C@H]3C[C@@]4(C)[C@@H](CC[C@@H]5[C@@H]4CC[C@]4(C)[C@@H](O)CC[C@@H]54)C[C@@H]3O)CC2)c1` [FC-48, 3-acetyl-N-[(2S)-1-{4-[(2β,3α,5α,17β)-3,17-Dihydroxyandrostan-2-yl]piperazin-1-yl}1-oxo-3-phenylpropan-2-yl]benzamide], the IC50 in [1] (Homo sapiens, MCF7, 72 h) is 1500 nM; in [2] (Homo sapiens, MDA-MB-231, 72 h), > 10000 nM; in series [3] (72 h), 1300 nM; in series [4] (Homo sapiens, LNCaP, 72 h) it was 2200 nM; in [5] (PC3/AR, 72 h), > 10000 nM; in series [6] (Homo sapiens, OVCAR-3, 72 h), 1600 nM. Also, the IC50 in series [7] (Homo sapiens, HL-60, 72 h, Table 3, 3 days incubation, MTS, read-out: IC50 HL-60) is 1800 nM; in the series with K-562 leukemia cells (Homo sapiens, K562, 72 h), > 10000 nM; in series [8] (Homo sapiens, WI-38, 72 h), > 10000 nM; in series [9] (Lymphocyte, 72 h), > 50000 nM. Moreover, the AUC(0-t) in the series “in vivo” (AUC (7 h)) came out at 290 ng·h/mL; in the series “in vivo” (AUC (24 h)), 555 ng·h/mL; in the series “in vivo” (AUC(12 h)) it was 413 ng·h/mL.

Consider `C[C@]12C[C@H](N3CCN(C(=O)[C@@H]4CCCN4C(=O)c4cccc5ccccc45)CC3)[C@@H](O)C[C@@H]1CC[C@@H]1[C@@H]2CC[C@]2(C)[C@@H](O)CC[C@@H]12` [PC-37], for which the IC50 is 500 nM in series [1]; > 10000 nM in [2]; 200 nM in [3]; 1500 nM in series [4]; 6500 nM in series [5]; 1400 nM in series [6]. The IC50 in [7] (Table 3, 3 days incubation, MTS, read-out: IC50 HL-60) was 2500 nM; in series [7] (Table 4, HL-60 cancer cell line, read-out: IC50) it was 1900 nM; in series [7] (Table 6, HL-60 cancer cell line, read-out: IC50 (HL-60)), 1900 nM; in the series on K-562 leukemia cells it was 10600 nM; in series [8], > 10000 nM; in series [9] (Table 3, normal lymphocytes, 3 days incubation, MTS), 36000 nM. Besides, in series [10], the “growth of human MCF-7 breast cancer xenografts” value was “reduce the growth”. For the same molecule, in series [9] (even at high concentrations (>10 μM)), the “toxicity on normal healthy lymphocytes” value is reported as “little or no toxicity”. The “AUC (7 h)” value in series [11] (Table 5, subcutaneous one time) came to 337 ng·h/mL. Also, the “AUC (24 h)” value in series [11] (Table 5, subcutaneous one time) is 552 ng·h/mL. In series [11] (Table 5, subcutaneous one time), the “AUC(12 h)” value was 462 ng·h/mL. Besides, in series [11] (Table 6, subcutaneous one time), the “AUC (0-3 h)” value was determined as 97 ng·h/mL. For the same molecule, in series [11] (Table 6, subcutaneous one time), the “AUC (0-12 h)” value stood at 429 ng·h/mL.
